Reference: patent publication US7317187B2, “Frontal affinity chromatography/MALDI tandem mass spectrometry” (priority 2004, dated 2008)
pKd: −log10 of the molar value.

Key:
[1] = target: T1, entrapped dihydrofolate reductase (DHFR) (Escherichia coli, UniProt P0ABQ4); assay: FAC/ESI-MS/MS on monolithic column with entrapped DHFR; format: binding, E. coli; conditions: DHFR loaded column (25 pmol initial loading), compounds infused at 50 nM, 2 mM ammonium acetate, ESI/MS/MS detection
T1 construct: made in house

[2] = target: dihydrofolate reductase (DHFR) (Escherichia coli, UniProt P0ABQ4); conditions: cited from earlier work

Row | Compound | retention (elution) time [1] | pKd [2]
1 | CC(=O)NC(=O)[C@H](O)[C@@H](O)[C@H](O)[C@H](O)CO [N-acetyl-gluconamide] | 1.5 min | 
2 | Nc1nc2ncc(CNc3ccc(C(=O)N[C@@H](CCC(=O)O)C(=O)O)cc3)nc2c(=O)[nH]1 [folic acid] | 3 min | 4.96
